Results published in PubChem BioAssay AID2060909 (Molecular Pharmacology Branch, DTP, NCI, 2025).

System: 362531-283-R-J2-PDC complex spheroid viability
Test: Anticancer human tumor 362531-283-R-J2-PDC patient-derived colon adenocarcinoma cell line growth inhibition [RAS]
Conditions: for viability, T/C: stronger effect = lower value
In short: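 Multi-cell-type spheroids: tumor cells plus HUVEC endothelial cells and mesenchymal stem cells. RAS-pathway inhibitors were combined with targeted agents, each dosed in half-log steps down from clinical Cmax, or from 10 microM when Cmax was unknown.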
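Further: spheroids exposed to the agents for 7 days before readout.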
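Wherever viability, T/C is given: luminescence viability as percent of DMSO vehicle control wells.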

`CCc1c2c(nc3ccc(O)cc13)-c1cc3c(c(=O)n1C2)COC(=O)[C@]3(O)CC` + C=CC(=O)N1CCN(c2nc(OCC3CCCN3C)nc3c(F)c(-c4nc(N)cc(C)c4C(F)(F)F)c(Cl)cc23)C(C)C1 was tested, and the IC50 (curve of first compound, second compound 0.00316 µM) was 0.0246 µM, the IC50 (curve of first compound, second compound 0.01 µM) was 0.0242 µM and the IC50 (curve of first compound, second compound 0.0316 µM) was 0.0302 µM. For the same compound, the IC50 (curve of first compound, second compound 0.1 µM) was 0.0205 µM, the IC50 (curve of first compound, second compound 0.316 µM) was 0.0244 µM and the IC50 (curve of first compound, second compound 1 µM) was 0.0235 µM. The viability, T/C (second compound 0.00316 µM, first compound 0.000949 µM) was 89.9%, the viability, T/C (second compound 0.00316 µM, first compound 0.003 µM) was 104% and the viability, T/C (second compound 0.00316 µM, first compound 0.00949 µM) was 61.3%. The viability, T/C (second compound 0.00316 µM, first compound 0.03 µM) was 51.9%, the viability, T/C (second compound 0.00316 µM, first compound 0.0949 µM) was 31.2% and the viability, T/C (second compound 0.00316 µM, first compound 0.3 µM) was 26.8%. For the same compound, the viability, T/C (second compound 0.01 µM, first compound 0.000949 µM) was 95.5%, the viability, T/C (second compound 0.01 µM, first compound 0.003 µM) was 93.6% and the viability, T/C (second compound 0.01 µM, first compound 0.00949 µM) was 84.6%. It also gave a viability, T/C (second compound 0.01 µM, first compound 0.03 µM) of 42.4%, a viability, T/C (second compound 0.01 µM, first compound 0.0949 µM) of 29.5% and a viability, T/C (second compound 0.01 µM, first compound 0.3 µM) of 35.1%. It also gave a viability, T/C (second compound 0.0316 µM, first compound 0.000949 µM) of 96.2%, a viability, T/C (second compound 0.0316 µM, first compound 0.003 µM) of 91.8% and a viability, T/C (second compound 0.0316 µM, first compound 0.00949 µM) of 72.7%. For the same compound, the viability, T/C (second compound 0.0316 µM, first compound 0.03 µM) was 46.5%, the viability, T/C (second compound 0.0316 µM, first compound 0.0949 µM) was 37.3% and the viability, T/C (second compound 0.0316 µM, first compound 0.3 µM) was 20.7%. For the same compound, the viability, T/C (second compound 0.1 µM, first compound 0.000949 µM) was 111%, the viability, T/C (second compound 0.1 µM, first compound 0.003 µM) was 101% and the viability, T/C (second compound 0.1 µM, first compound 0.00949 µM) was 54%. It also gave a viability, T/C (second compound 0.1 µM, first compound 0.03 µM) of 54%, a viability, T/C (second compound 0.1 µM, first compound 0.0949 µM) of 33% and a viability, T/C (second compound 0.1 µM, first compound 0.3 µM) of 29.1%. For the same compound, the viability, T/C (second compound 0.316 µM, first compound 0.000949 µM) was 87.2%, the viability, T/C (second compound 0.316 µM, first compound 0.003 µM) was 92.4% and the viability, T/C (second compound 0.316 µM, first compound 0.00949 µM) was 71.5%. The viability, T/C (second compound 0.316 µM, first compound 0.03 µM) was 43.8%, the viability, T/C (second compound 0.316 µM, first compound 0.0949 µM) was 37.1% and the viability, T/C (second compound 0.316 µM, first compound 0.3 µM) was 24.5%. It also gave a viability, T/C (second compound 1 µM, first compound 0.000949 µM) of 99.6%, a viability, T/C (second compound 1 µM, first compound 0.003 µM) of 87.1% and a viability, T/C (second compound 1 µM, first compound 0.00949 µM) of 71.9%. The viability, T/C (second compound 1 µM, first compound 0.03 µM) was 42.3%, the viability, T/C (second compound 1 µM, first compound 0.0949 µM) was 33.3% and the viability, T/C (second compound 1 µM, first compound 0.3 µM) was 26.3%.

`C=CC(=O)N1CCN(c2nc(OCC3CCCN3C)nc3c(F)c(-c4nc(N)cc(C)c4C(F)(F)F)c(Cl)cc23)C(C)C1` (stereo unspecified) was tested, and the viability, T/C (compound 0.00316 µM) was 104% [middle of 12 runs], the viability, T/C (compound 0.01 µM) was 108% [middle of 12 runs] and the viability, T/C (compound 0.0316 µM) was 102% [middle of 12 runs]. The viability, T/C (compound 0.1 µM) was 102% [middle of 12 runs], the viability, T/C (compound 0.316 µM) was 102% [middle of 12 runs] and the IC50 (compound alone, run of 07/15/2024) was greater than 1 µM. For the same compound, the IC50 (curve of compound) was greater than 1 µM.

`CC1(C)CCC(Nc2ncc(C(F)(F)F)c(-c3c[nH]c4c(P(C)(C)=O)c(C#N)ccc34)n2)CN1` (stereo unspecified) was tested, and the viability, T/C (compound 0.000949 µM) was 104% [middle of 4 runs], the viability, T/C (compound 0.003 µM) was 98.7% [middle of 4 runs] and the viability, T/C (compound 0.00949 µM) was 107% [middle of 4 runs]. The viability, T/C (compound 0.03 µM) was 101% [middle of 4 runs], the viability, T/C (compound 0.0949 µM) was 104% [middle of 4 runs] and the viability, T/C (compound 0.3 µM) was 108% [middle of 4 runs]. It also gave an IC50 (curve of compound) greater than 0.3 µM.
